Laboratory results published in US20230103007A1, “COMBINATION THERAPY FOR TREATING ABNORMAL CELL GROWTH” (priority 2020, published 2023).

Assays:
[1] = system: H2122 KRAS G12C mt NSCLC xenograft; test: Xenograft efficacy study, H2122; type: in vivo, Balb/c nude mice; conditions: for augmentation of tumor growth inhibition by sotorasib: 0.3 mg/kg QD in combination with sotorasib 30 mg/kg QD; for mice with tumor regression, combination with sotorasib: in combination with sotorasib, 10 days of treatment; for effect on AMG-510 efficacy (change in tumor volume): in combination with AMG-510, H2122 tumor bearing mice, 10 days
Method: (§1) KRAS G12C mutant NSCLC H2122 and H358 tumor cells and Balb/c nude mice were used. Tumor challenge was initiated by subcutaneous inoculation of 1×10^7 tumor cell suspensions into the right flank of recipient mice. Tumor sizes (mm^3) and body weights were measured 3 times per week for the duration of the study. At the time of routine monitoring, the animals were checked for any effects of tumor growth and treatments on normal behavior such as mobility, food and water consumption (by looking only), and body weight gain/loss, eye/hair matting and any other abnormal effect.
(§2) For efficacy studies, once tumors reached an average volume of 150-200 mm^3, mice were sorted into 10 groups (n=10): vehicle 1 (5% DMSO, 10% HPCD in sterile water)+vehicle 2 (2% HPMC, 1% Tween 80 in sterile water), VS-6766 in vehicle 1 (0.3 mg/kg PO QD, 28 days)+vehicle 2, AMG-510 in vehicle 2 (30 mg/kg PO QD, 28 days)+vehicle 1, VS-6766+AMG-510, VS-4718 (0.5% CMC-Na, 0.1% Tween 80 in sterile water) (50 mg/kg PO BID, 28 days)+vehicle 2, VS-4718+VS-6766, VS-4718+AMG-510, VS-4718+AMG-510+VS-6766, trametinib (0.3 mg/kg PO QD, 28 days) (0.5% hydroxypropylmethylcellulose and 0.2% Tween-80 in distilled water (pH 8.0))+vehicle 2, and trametinib+AMG-510. Mice were euthanized when tumor volumes>2,000 mm^3.

[2] = system: H358 KRAS G12C mt NSCLC xenograft; test: Xenograft efficacy study, H358; type: in vivo, Balb/c nude mice; conditions: in combination with G12Ci (AMG-510); 21 days
Method: as §1, §2

[3] = system: KRAS G12C mt NSCLC and colorectal cancer cell lines (H2122, H358, H2030, H1373, SW837, SW1463); test: 3D proliferation assay in vitro (CellTiter-Glo 3D, synergy analysis); type: cell-based; conditions: 7 days treatment, panel of KRAS G12C mt NSCLC and CRC cell lines, Loewe model
Method: KRAS G12C mutant NSCLC (H2122, H358, H2030, H1373) and colorectal cancer (CRC; SW837 and SW1463) were used. Briefly, 96-well plates were coated with 50 μL of Matrigel (100%) and incubated at 37° C. and 5% CO2 for 30 min in order for the Matrigel to solidify. Cells were seeded in 100 μL of 2% Matrigel containing medium. After an incubate overnight (17-22 hours) cells were treated with VS-6766 +/−G12C inhibitor +/−Defactinib for 7 days. Cell viability was measured using the cell viability CellTiter-Glo 3D assay. Combination effects were evaluated by comparing the averaged viability/inhibition to two different null reference models derived from the single agent activities. Bliss, Loewe and Highest Single Agent synergy analysis were performed to determine synergy scores.

[4] = system: RAS pathway signaling (pMEK, pERK, p-p90RSK); test: Western blot of RAS pathway signaling in KRAS G12C mt NSCLC cell lines; type: cell-based
Method: KRAS G12C mutant NSCLC cells (H2122, H358, H1373 and SW1573) were seeded in 10-cm dishes. After an incubate overnight (17-22hrs) cells were treated with 100 nM VS-6766 +/−100 nM G12C inhibitor. 4 and 48 hours post compound treatment, cells were collected, and cell lysates prepared using RIPA buffer containing protease inhibitors. Western blot assays were run using antibodies for pMEK, MEK, pERK, ERK, p-p90RSK, p90RSK and actin.

[5] = system: pMEK and pERK in H2122 KRAS G12C NSCLC xenograft tumors; test: Pharmacodynamic study in H2122 xenograft tumors (pMEK, pERK western blot); type: in vivo, Balb/c nude mice; conditions: VS-6766 0.3 mg/kg + AMG-510 30 mg/kg, oral, daily for 5 days; tumors harvested 2, 8 and 24 hours after final dose
Method: as §1

[6] = 100 nM VS-6766 + 100 nM AMG-510, 4 and 48 hours
[7] = 100 nM VS-6766 + 100 nM MRTX849, 4 and 48 hours

Row | SMILES | augmentation of tumor growth inhibition by sotorasib [1] | mice with tumor regression, combination with sotorasib [1] | effect on efficacy of G12Ci in H358 xenograft model [2] | effect on AMG-510 efficacy (change in tumor volume) [1] | synergy in reducing viability, combination with adagrasib [3] | synergy in reducing viability, combination with sotorasib [3] | depth and duration of inhibition of MEK/ERK signaling, added to AMG-510, relative to G12C inhibitor alone [4, 6] | pERK inhibition by combination with AMG-510 versus AMG-510 alone [4, 6] | depth and duration of inhibition of MEK/ERK signaling, added to MRTX849, relative to G12C inhibitor alone [4, 7] | pERK inhibition by combination with MRTX849 versus MRTX849 alone [4, 7] | suppression of RAS pathway signaling (pMEK, pERK, p-p90RSK) as a single agent ([4]; single agent, 100 nM, 4 and 48 hours, KRAS-G12C NSCLC cell lines) | mice with tumor reductions of >35%, triple combination ([1]; triple combination of VS-6766, sotorasib and a FAK inhibitor) | inhibition of pMEK and pERK in tumors, combination with sotorasib relative to sotorasib alone [5]
1 | CC(=O)Nc1cccc(-n2c(=O)n(C3CC3)c(=O)c3c(Nc4ccc(I)cc4F)n(C)c(=O)c(C)c32)c1 [trametinib, reference compound] | much less effective | 1/10 |  |  |  |  |  |  |  |  |  |  | 
2 | CNC(=O)c1ccccc1Nc1cc(Nc2ccc(N3CCOCC3)cc2OC)ncc1C(F)(F)F [FAK inhibitor] |  | 4/10 | enhance | potentiate |  |  |  |  |  |  |  |  | 
3 | CNC(=O)c1ccc(Nc2ncc(C(F)(F)F)c(NCc3nccnc3N(C)S(C)(=O)=O)n2)cc1 [defactinib] |  |  |  |  | synergistic | synergistic |  |  |  |  |  |  | 
4 | CNS(=O)(=O)Nc1nccc(Cc2c(C)c3ccc(Oc4ncccn4)cc3oc2=O)c1F [VS-6766] | augmented | 5/10 | enhance | potentiate | synergistic | synergistic | increases depth and duration of inhibition | better | increases depth and duration of inhibition | better | effectively suppressed | 10/10 | improved inhibition
